Here are results for two molecules from ChEMBL document CHEMBL1140378, “Fast small molecule similarity searching with multiple alignment profiles of molecules represented in one-dimension” (J Med Chem, 2005).

Assay [1] has as its target T1, Glucagon receptor (Homo sapiens, UniProt P47871). The assay can be described thus: Antagonist activity against glucagon receptor; […]. Format: functional.
Assay [2] has as its target Mitogen-activated protein kinase 14 (Homo sapiens, UniProt Q16539). As to the kind of experiment: Inhibitory activity against Mitogen-activated protein kinase 14, p38-alpha; No activity.
For assay [3], the target named is T1, Glucagon receptor. As to the kind of experiment: Antagonist activity against glucagon receptor. Format: functional.

T1 sequence (P47871 whole entry): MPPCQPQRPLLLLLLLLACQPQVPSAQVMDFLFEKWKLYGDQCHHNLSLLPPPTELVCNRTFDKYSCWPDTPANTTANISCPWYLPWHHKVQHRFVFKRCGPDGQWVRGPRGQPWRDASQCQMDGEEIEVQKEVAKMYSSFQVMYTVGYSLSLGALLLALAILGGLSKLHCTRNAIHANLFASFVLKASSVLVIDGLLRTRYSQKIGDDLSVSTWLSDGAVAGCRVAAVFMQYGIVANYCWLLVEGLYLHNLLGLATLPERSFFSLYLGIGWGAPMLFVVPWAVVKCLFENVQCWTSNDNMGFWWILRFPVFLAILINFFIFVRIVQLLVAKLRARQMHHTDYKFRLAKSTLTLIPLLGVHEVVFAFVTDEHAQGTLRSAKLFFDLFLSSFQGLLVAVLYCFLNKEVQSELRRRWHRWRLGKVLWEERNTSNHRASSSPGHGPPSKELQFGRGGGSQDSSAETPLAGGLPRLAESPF
Mitogen-activated protein kinase 14, sequence (Q16539 whole entry): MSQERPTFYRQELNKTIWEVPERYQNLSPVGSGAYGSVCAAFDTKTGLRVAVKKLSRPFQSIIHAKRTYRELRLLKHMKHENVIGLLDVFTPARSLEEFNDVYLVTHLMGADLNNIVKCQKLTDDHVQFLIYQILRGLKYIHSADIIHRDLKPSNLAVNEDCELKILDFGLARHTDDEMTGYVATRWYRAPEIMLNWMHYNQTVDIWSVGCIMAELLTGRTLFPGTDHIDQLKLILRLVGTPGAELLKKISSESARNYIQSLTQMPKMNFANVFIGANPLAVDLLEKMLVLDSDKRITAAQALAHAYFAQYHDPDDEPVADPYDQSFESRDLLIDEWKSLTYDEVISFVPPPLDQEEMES

By IC50 is commonly meant the midpoint of a concentration-inhibition curve. Low readings indicate greater potency in that assay, high ones weaker potency in that assay. `O=C(O)c1ccc(-c2cc(-c3ccc(F)cc3)c(-c3ccncc3)[nH]2)cc1`: the IC50 entry in assay [1] is given as “Not Active”. On to `CC(C)c1cc(-c2ccc(Cl)cc2)[nH]c1-c1ccncc1`, for which the half-maximal inhibitory concentration (IC50) entry in assay [2] was “Not Active”; in assay [3], 32 nM.
